In patent publication US20250215030A1, “STAT MODULATORS AND USES THEREOF” (Recludix Pharma, Inc., priority 2022, published 2025):

Columns and labels:
pSTAT3 (pY705-STAT3) = target: T1, pSTAT3 (pY705-STAT3) (Homo sapiens, UniProt P40763); experiment: MSD-pSTAT-PBMC Assay (pSTAT3, IL-6 stimulated); assay type: cell-based; conditions: PBMC, compound 3 hrs, then 10 ng/mL IL-6 for 10 min; MSD pY705-STAT3; read-out: pSTAT3
T1 construct: host or cells: cryopreserved PBMC
Outline: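 Phospho-STAT levels captured on anti-STAT3 or anti-STAT6 plates and detected with anti-pY705 or anti-pY641 antibodies (MSD read-out). Cryopreserved human PBMCs received compound for 3 h before a 10 min pulse of IL-6 (10 ng/mL, STAT3) or IL-4 (1 ng/mL, STAT6). IC50 fitted after unstimulated-background subtraction and DMSO normalization.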

pSTAT6 (pY641-STAT6) = target: T2, pSTAT6 (pY641-STAT6) (Homo sapiens, UniProt P42226); experiment: MSD-pSTAT-PBMC Assay (pSTAT6, IL-4 stimulated); assay type: cell-based; conditions: compound 3 hrs, then 1 ng/mL IL-4 for 10 min
T2 construct: host or cells: cryopreserved PBMC
T2 sequence (P42226 1-847): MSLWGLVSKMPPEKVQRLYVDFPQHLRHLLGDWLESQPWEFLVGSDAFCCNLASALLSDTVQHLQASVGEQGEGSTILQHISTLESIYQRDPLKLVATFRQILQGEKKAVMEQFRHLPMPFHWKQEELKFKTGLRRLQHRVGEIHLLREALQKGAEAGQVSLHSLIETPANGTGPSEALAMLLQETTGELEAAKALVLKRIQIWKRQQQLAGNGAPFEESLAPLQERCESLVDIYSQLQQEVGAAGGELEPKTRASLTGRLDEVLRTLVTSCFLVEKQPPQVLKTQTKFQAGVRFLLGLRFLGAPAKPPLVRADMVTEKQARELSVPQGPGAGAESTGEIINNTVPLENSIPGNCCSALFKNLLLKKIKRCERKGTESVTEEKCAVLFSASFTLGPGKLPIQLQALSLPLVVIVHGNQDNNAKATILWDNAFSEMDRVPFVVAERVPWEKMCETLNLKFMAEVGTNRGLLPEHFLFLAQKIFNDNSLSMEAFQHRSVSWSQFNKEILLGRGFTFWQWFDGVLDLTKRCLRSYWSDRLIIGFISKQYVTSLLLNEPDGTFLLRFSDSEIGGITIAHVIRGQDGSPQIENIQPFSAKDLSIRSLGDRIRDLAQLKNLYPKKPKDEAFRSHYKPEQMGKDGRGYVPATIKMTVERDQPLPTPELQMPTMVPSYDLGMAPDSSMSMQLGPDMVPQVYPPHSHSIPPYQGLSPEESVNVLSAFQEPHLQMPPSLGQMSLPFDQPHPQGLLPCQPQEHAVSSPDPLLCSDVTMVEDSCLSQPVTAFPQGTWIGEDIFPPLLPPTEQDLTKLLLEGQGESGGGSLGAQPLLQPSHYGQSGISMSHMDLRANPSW
Source text: Cryopreserved Peripheral Blood Mononuclear Cells (PBMC) are from AllCells. Recombinant Human IL-4 and IL-6 are from Peprotech. Mouse monoclonal anti-STAT3 antibody, rabbit monoclonal anti-pY705-STAT3 antibody, rabbit monoclonal Anti-pY641-STAT6 antibody, and lysis buffer are from Cell Signaling Technology (CST). Mouse monoclonal anti-STAT6 antibody is from BioLegend. Assay plates, blocker, and anti-rabbit secondary antibody are from Meso Scale Discovery (MSD).
Cryopreserved PBMCs were thawed out and allowed to recover overnight in IMDM+10% heat-inactivated FBS prior to plating 50,000 (STAT3) or 25,000 (STAT6) cells per well in 96-well U-bottom tissue culture plates. Cells were treated with compound for 3 hrs, then stimulated with 10 ng/mL IL-6 (STAT3) or 1 ng/mL IL-4 (STAT6) for 10 min. Cells were then spun down and washed with ice-cold PBS prior to lysing the cell pellet with 1× lysis buffer (CST) with 1× HALT protease and phosphatase inhibitor cocktail (Thermo). Lysates were transferred to and incubated overnight at 4° C. with shaking in QuickPlex 96-well high bind assay plates (MSD) pre-coated overnight with 30 μL per well of 0.6 μg/mL mouse monoclonal anti-STAT3 antibody (STAT3) or 2 μg/mL mouse monoclonal anti-STAT6 antibody (STAT6) in 1×PBS, and pre-blocked for 1 hour with 3% Blocker-A (MSD). Captured protein in the assay plates were then washed and probed with 25 μL per well of 0.25 μg/ml rabbit monoclonal anti-pY705-STAT3 antibody (STAT3) or 0.18 μg/ml rabbit monoclonal Anti-pY641-STAT6 antibody (STAT6) in 1% Blocker-A for 1 hour at room temperature with shaking, then washed and probed with 25 ul per well of 1 ug/mi Sulfo-TAG Labeled Goat Anti-Rabbit Antibody (MSD) in 1% Blocker-A for 1 hour at room temperature with shaking. Assay plates were then washed and 150 μL of 1× Read Buffer-T (MSD) was added to each well prior to reading on an SQ120 MSD Plate Reader. Assay signal from each sample was subtracted by the signal from unstimulated control wells and normalized to DMSO control wells. IC50 values were calculated using Graph Pad Prism Dose-Response Nonlinear Regression with variable slope. For both pSTAT3 and pSTAT6 A=≤100 nM; B=>100-1000 nM; C=>1000-3000 nM; and D=>3 μM.

T1 sequence (P40763 whole entry): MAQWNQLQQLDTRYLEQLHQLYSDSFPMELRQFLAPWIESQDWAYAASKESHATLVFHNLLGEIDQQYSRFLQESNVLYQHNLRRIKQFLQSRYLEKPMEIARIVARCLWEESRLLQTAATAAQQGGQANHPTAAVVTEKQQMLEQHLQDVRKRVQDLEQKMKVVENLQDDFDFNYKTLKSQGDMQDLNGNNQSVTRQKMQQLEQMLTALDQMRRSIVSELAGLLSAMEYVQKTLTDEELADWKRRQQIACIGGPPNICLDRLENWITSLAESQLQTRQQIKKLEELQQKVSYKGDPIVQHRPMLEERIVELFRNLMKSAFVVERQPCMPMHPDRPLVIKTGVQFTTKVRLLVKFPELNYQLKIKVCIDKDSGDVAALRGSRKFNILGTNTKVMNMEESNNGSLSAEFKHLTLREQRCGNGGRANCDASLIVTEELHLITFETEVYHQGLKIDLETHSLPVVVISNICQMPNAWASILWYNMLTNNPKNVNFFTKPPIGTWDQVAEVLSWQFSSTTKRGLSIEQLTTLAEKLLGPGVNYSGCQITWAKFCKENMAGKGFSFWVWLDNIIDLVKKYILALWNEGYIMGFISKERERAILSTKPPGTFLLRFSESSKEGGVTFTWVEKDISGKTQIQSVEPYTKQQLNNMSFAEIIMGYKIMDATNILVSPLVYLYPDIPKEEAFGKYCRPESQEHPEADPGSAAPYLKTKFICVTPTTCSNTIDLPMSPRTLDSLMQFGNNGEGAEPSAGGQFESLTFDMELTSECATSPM

| IC50 (pSTAT3 (pY705-STAT3)) [nM] | IC50 (pSTAT6 (pY641-STAT6)) [µM] | SMILES |
| --- | --- | --- |
| < 100 | 1 to 3 | CC(C)CC(=O)SCCOP(=O)(OCOC(=O)OC(C)C)C(F)(F)c1ccc2sc(C(=O)N[C@H]3C[C@@H]4C[C@@H]4C[C@H]4CC[C@@H](C(=O)N5CC(C(=O)N6CCOCC6)C5)N4C3=O)cc2c1 (stereo partly drawn) [Compound 141, S-(2-(((difluoro(2-(((3S,6S,7aS, 8aR,9aR)-3-(3-(morpholine-4-carbonyl)azetidine-1-carbonyl)-5-oxodecahydro-1H-cyclopropa [d]pyrrolo[1,2-a]azocin-6-yl)carbamoyl)benzo[b]thiophen-5-yl)methyl)(((iso-propoxy-carbonyl)oxy)methoxy)phos-phoryl)oxy)ethyl) 3-methylbutane thioate] |
| < 100 | 1 to 3 | CC(=O)N1C[C@@H](F)[C@@H](NC(=O)[C@@H]2CC[C@@H]3C[C@@H]4C[C@@H]4C[C@H](NC(=O)c4cc5cc(C(F)(F)P(=O)(OCCSC(=O)CC(C)C)OCCSC(=O)CC(C)C)ccc5s4)C(=O)N32)C1 [Compound 142, S,S′-(((((2-(((3S,6S,7aR, 8aS,9aR)-3-(((3S,4R)-1-acetyl-4-fluoropyrrolidin-3-yl)carbamoyl)-5-oxodecahydro-1H-cyclopropa [d]pyrrolo[1,2-a]azocin-6-yl)carbamoyl)benzo[b]thiophen-5-yl)difluoromethyl)phosphoryl)bis(oxy))bis(ethane-2,1-diyl)) bis(3-methylbutane thioate)] |
| 100 to 1000 | > 3 | CC(C)(C)C(=O)SCCOP(=O)(Cc1ccc2sc(C(=O)N[C@H]3C[C@@H]4C[C@@H]4C[C@H]4CC[C@@H](C(=O)N5CC(C(=O)N6CCOCC6)C5)N4C3=O)cc2c1)OCCSC(=O)C(C)(C)C [Compound 144, S,S′-(((((2-(((3S,6S,7aS, 8aR,9aR)-3-(3-(morpholine-4-carbonyl)azetidine-1-carbonyl)-5-oxodecahydro-1H-cyclopropa[d]pyrrolo[1,2-a]azocin-6-yl)carbamoyl)benzo[b]thiophen-5-yl)methyl)phosphoryl)bis(oxy))bis(ethane-2,1-diyl)) bis(2,2-dimethyl-propanethioate)] |
| < 100 | 1 to 3 | CC(C)(C)C(=O)OCOP(=O)(OCOC(=O)C(C)(C)C)C(F)(F)c1ccc2sc(C(=O)N[C@H]3C[C@@H]4C[C@@H]4C[C@H]4CC[C@@H](C(=O)N5CC(C(=O)N6CCOCC6)C5)N4C3=O)cc2c1 [Compound 145, (((difluoro(2-(((3S,6S,7aS, 8aR,9aR)-3-(3-(morpholine-4-carbonyl)azetidine-1-carbonyl)-5-oxodecahydro-1H-cyclopropa [d]pyrrolo[1,2-a]azocin-6-yl)carbamoyl)benzo[b]thiophen-5-yl)methyl)phosphoryl)bis(oxy)) bis(methylene) bis(2,2-dimethyl-propanoate)] |
| > 3000 | > 3 | CC(C)(CO)C(=O)SCCOP(=O)(Cc1ccc2sc(C(=O)N[C@H]3C[C@@H]4C[C@@H]4C[C@H]4CC[C@@H](C(=O)N5CC(n6ccnc6)C5)N4C3=O)cc2c1)OCCSC(=O)C(C)(C)CO [Compound 146, S,S′-(((((2-(((3S,6S,7aS, 8aR,9aR)-3-(3-(1H-imidazol-1-yl)azetidine-1-carbonyl)-5-oxodecahydro-1H-cyclopropa[d]pyrrolo[1,2-a]azocin-6-yl)carbamoyl)benzo[b]thiophen-5-yl)methyl)phosphoryl)bis(oxy))bis(ethane-2,1-diyl)) bis(3-hydroxy-2,2-dimethyl-propanethioate)] |
| 100 to 1000 | > 3 | CC(C)OC(=O)OCOP(=O)(Cc1ccc2sc(C(=O)N[C@H]3C[C@@H]4C[C@@H]4C[C@H]4CC[C@@H](C(=O)N5CC(C(=O)N6CCOCC6)C5)N4C3=O)cc2c1)OCOC(=O)OC(C)C [Compound 148] |
| 1000 to 3000 | > 3 | CCCC(=O)SCCOP(=O)(Cc1ccc2sc(C(=O)N[C@H]3C[C@@H]4C[C@@H]4C[C@H]4CC[C@@H](C(=O)N5CC(C(=O)N6CCOCC6)C5)N4C3=O)cc2c1)OCCSC(=O)CCC [Compound 149, S,S′-(((((2-(((3S,6S,7aS, 8aR,9aR)-3-(3-(morpholine-4-carbonyl)azetidine-1-carbonyl)-5-oxodecahydro-1H-cyclopropa[d]pyrrolo[1,2-a]azocin-6-yl)carbamoyl)benzo[b]thiophen-5-yl)methyl)phosphoryl)bis(oxy))bis(ethane-2,1-diyl)) dibutanethioate] |
| < 100 | > 3 | CC(C)(C)C(=O)OCOP(=O)(Cc1ccc2sc(C(=O)N[C@H]3C[C@@H]4C[C@@H]4C[C@H]4CC[C@@H](C(=O)N5CC(C(=O)N6CCOCC6)C5)N4C3=O)cc2c1)OCOC(=O)C(C)(C)C [Compound 150, ((((2-(((3S,6S, 7aS,8aR,9aR)-3-(3-morpholine-4-carbonyl)azetidine-1-carbonyl)-5-oxodecahydro-1H-cyclopropa [d]pyrrolo[1,2-a]azocin-6-yl)carbamoyl)benzo [b]thiophen-5-yl)methyl)phosphoryl) bis(oxy)) bis(methylene) bis(2,2-dimethyl-propanoate)] |
| 100 to 1000 | > 3 | CC(C)(C)C(=O)SCCOP(=O)(Cc1ccc2sc(C(=O)N[C@H]3C[C@@H]4C[C@@H]4C[C@H]4CC[C@@H](C(=O)N5CC(n6ccnc6)C5)N4C3=O)cc2c1)OCCSC(=O)C(C)(C)C [Compound 151, S,S′-(((((2-(((3S,6S,7aS, 8aR,9aR)-3-(3-(1H-imidazol-1-yl)azetidine-1-carbonyl)-5-oxodecahydro-1H-cyclopropa [d]pyrrolo[1,2-a]azocin-6-yl)carbamoyl)benzo[b]thiophen-5-yl)methyl)phosphoryl)bis(oxy))bis(ethane-2,1-diyl)) bis(2,2-dimethyl-propanethioate)] |
| < 100 | 0.1 to 1 | CC(C)OC(=O)OCOP(=O)(OCOC(=O)OC(C)C)[C@@H](F)c1ccc2sc(C(=O)N[C@H]3C[C@H]4C[C@H]4C[C@H]4CC[C@@H](C(=O)N5CC(c6cccnc6)C5)N4C3=O)cc2c1 [Compound 152, ((((R)-fluoro(2-(((3S,6S,7aR, 8aS,9aR)-5-oxo-3-(3-(pyridin-3-yl)azetidine-1-carbonyl)decahydro-1H-cyclopropa[d]pyrrolo[1,2-a]azocin-6-yl)carbamoyl)benzo[b]thiophen-5-yl)methyl)phosphoryl)bis(oxy)) bis(methylene) diisopropyl bis(carbonate)] |

| SMILES | IC50 (pSTAT3 (pY705-STAT3)) [nM] | IC50 (pSTAT6 (pY641-STAT6)) [µM] |
| --- | --- | --- |
| C[C@@H](NP(=O)(Cc1ccc2sc(C(=O)N[C@H]3C[C@@H]4C[C@@H]4C[C@H]4CC[C@@H](C(=O)N5CC(C(=O)N6CCOCC6)C5)N4C3=O)cc2c1)Oc1ccccc1)C(=O)OCc1ccccc1 (stereo partly drawn) [Compound 143, benzyl (((2-(((3S,6S,7aS, 8aR,9aR)-3-(3-(morpholine-4-carbonyl)azetidine-1-carbonyl)-5-oxodecahydro-1H-cyclopropa [d]pyrrolo[1,2-a]azocin-6-yl)carbamoyl)benzo[b]thiophen-5-yl)methyl) (phenoxy)phosphoryl)-D-alaninate] | 100 to 1000 | > 3 |
